These are literature values, as cited in paper PMC10386743, “Application of Ligand- and Structure-Based Prediction Models for the Design of Alkylhydrazide-Based HDAC3 Inhibitors as Novel Anti-Cancer Compounds” (Pharmaceuticals, 2023).

The subject of one data set is HDAC3. As to conditions: 1 µM.
`CCCNNC(=O)c1cnc(NCCc2ccccc2)nc1` [Compound 74]: the “HDAC3 inhibition @1 µM” value is 41%@1 µM.

The data set is the same for the next values; noted with them: 10uM.
On to `CCCNNC(=O)c1cnc(NCCc2ccccc2)nc1` [Compound 74], for which the “HDAC3 inhibition @10uM” value was 87%.

The same data set, now with this note: experimentally determined.
For `CCCNNC(=O)c1cnc(NCCc2ccccc2)nc1` [Compound 74], the “activity on HDAC3 (in words)” value is “did not show significant inhibitory activity”.

The same data set, now with this note: newly designed compounds.
As to `CCCCNNC(=O)c1cnc(NCc2ccccc2)nc1` [Compound 73], the “pIC50 HDAC3 (HDAC3 experimental pIC50)” value was 6.70. In the case of `CCCNNC(=O)c1cnc(NCc2cccc3ccccc23)nc1` [Compound 75], the “pIC50 HDAC3 (HDAC3 experimental pIC50)” value is recorded as 7.09. For `CCCNNC(=O)c1cnc(NCc2ccccc2Cl)nc1` [Compound 76], the “pIC50 HDAC3 (HDAC3 experimental pIC50)” value is 7.22. Take `CCCNNC(=O)c1cnc(NCc2ccc(Cl)cc2)nc1` [Compound 77]: the “pIC50 HDAC3 (HDAC3 experimental pIC50)” value is listed as 7.43. With `CCCNNC(=O)c1cnc(NCc2cc(Cl)ccc2Cl)nc1` [Compound 78], the “pIC50 HDAC3 (HDAC3 experimental pIC50)” value is 7.24. On to `CCCNNC(=O)c1cnc(N2CCN(C)CC2)nc1` [Compound 79], for which the “pIC50 HDAC3 (HDAC3 experimental pIC50)” value is given as 6.92. In the case of `CCCNNC(=O)c1cnc(NCc2ccc(CNC(C)=O)cc2)nc1` [Compound 80], the “pIC50 HDAC3 (HDAC3 experimental pIC50)” value is on record as 6.96. Turning to `CCCCCCNNC(=O)c1cnc(NCc2cccc3ccccc23)nc1` [Compound 81], the “pIC50 HDAC3 (HDAC3 experimental pIC50)” value is reported as under 5.00.

Turning to `CCCCCCNNC(=O)c1cnc(NCCc2ccccc2)nc1` [Compound 82], the “pIC50 HDAC3 (HDAC3 experimental pIC50)” value is reported as under 5.00. On to `CCCCCCNNC(=O)c1cnc(NCc2ccccc2)nc1` [Compound 83], for which the “pIC50 HDAC3 (HDAC3 experimental pIC50)” value was 5.52. `CCCCCCNNC(=O)c1cnc(NCc2ccc(CNC(C)=O)cc2)nc1` [Compound 84]: the “pIC50 HDAC3 (HDAC3 experimental pIC50)” value is recorded as under 5.00. Take `CCCNNC(=O)c1cnc(N2CCN(Cc3c[nH]c4ccccc34)CC2)nc1` [Compound 85]: the “pIC50 HDAC3 (HDAC3 experimental pIC50)” value is 7.52. As to `CCCCCCNNC(=O)c1cnc(N2CCN(Cc3c[nH]c4ccccc34)CC2)nc1` [Compound 86], the “pIC50 HDAC3 (HDAC3 experimental pIC50)” value is 7.00.

Consider `CCCCCCNNC(=O)c1cnc(N2CCN(Cc3cn(C)c4ccccc34)CC2)nc1` [Compound 87], for which the “pIC50 HDAC3 (HDAC3 experimental pIC50)” value is recorded as 6.52. As to `CCCCCCNNC(=O)c1cnc(N2CCN(CCc3c[nH]c4ccccc34)CC2)nc1` [Compound 88], the “pIC50 HDAC3 (HDAC3 experimental pIC50)” value is 6.00. Regarding `CCCCCCNNC(=O)c1cnc(N2CCN(CCc3cn(C)c4ccccc34)CC2)nc1` [Compound 89], the “pIC50 HDAC3 (HDAC3 experimental pIC50)” value was 5.85.
